Earlier results in patent publication US6121280A, “Azabicyclic rotomase inhibitors” (Pfizer Inc., priority 1999, dated 2000).

Tested on: neuronal cell line and culture models
Details: Lyons et al. 1994, Snyder et al. 1995

SMILES: C=CC[C@@H]1/C=C(\C)C[C@H](C)C[C@H](OC)[C@H]2O[C@@](O)(C(=O)C(=O)N3CCCC[C@H]3C(=O)O[C@H](/C(C)=C/[C@@H]3CC[C@@H](O)[C@H](OC)C3)[C@H](C)[C@@H](O)CC1=O)[C@H](C)C[C@@H]2OC [FK-506]
- neurite outgrowth in vitro: promoted neurite outgrowth
